For orientation: pIC50 means −log10 of the IC50, conventionally taken in molar units.

pIC50: −log10 of the molar value. A value given as a limit tells only on which side of the number the result lay.

For 29 compounds, IC50 results are on record in US20220274979A1 (Bayer Pharma Aktiengesellschaft, priority 2018, published 2022).

The target in this assay is T1, Epidermal Growth Factor Receptor (EGFR) (Homo sapiens, UniProt P00533).
T1 construct: purchased Sigma-Aldrich E3641
T1 sequence (P00533 25-1210): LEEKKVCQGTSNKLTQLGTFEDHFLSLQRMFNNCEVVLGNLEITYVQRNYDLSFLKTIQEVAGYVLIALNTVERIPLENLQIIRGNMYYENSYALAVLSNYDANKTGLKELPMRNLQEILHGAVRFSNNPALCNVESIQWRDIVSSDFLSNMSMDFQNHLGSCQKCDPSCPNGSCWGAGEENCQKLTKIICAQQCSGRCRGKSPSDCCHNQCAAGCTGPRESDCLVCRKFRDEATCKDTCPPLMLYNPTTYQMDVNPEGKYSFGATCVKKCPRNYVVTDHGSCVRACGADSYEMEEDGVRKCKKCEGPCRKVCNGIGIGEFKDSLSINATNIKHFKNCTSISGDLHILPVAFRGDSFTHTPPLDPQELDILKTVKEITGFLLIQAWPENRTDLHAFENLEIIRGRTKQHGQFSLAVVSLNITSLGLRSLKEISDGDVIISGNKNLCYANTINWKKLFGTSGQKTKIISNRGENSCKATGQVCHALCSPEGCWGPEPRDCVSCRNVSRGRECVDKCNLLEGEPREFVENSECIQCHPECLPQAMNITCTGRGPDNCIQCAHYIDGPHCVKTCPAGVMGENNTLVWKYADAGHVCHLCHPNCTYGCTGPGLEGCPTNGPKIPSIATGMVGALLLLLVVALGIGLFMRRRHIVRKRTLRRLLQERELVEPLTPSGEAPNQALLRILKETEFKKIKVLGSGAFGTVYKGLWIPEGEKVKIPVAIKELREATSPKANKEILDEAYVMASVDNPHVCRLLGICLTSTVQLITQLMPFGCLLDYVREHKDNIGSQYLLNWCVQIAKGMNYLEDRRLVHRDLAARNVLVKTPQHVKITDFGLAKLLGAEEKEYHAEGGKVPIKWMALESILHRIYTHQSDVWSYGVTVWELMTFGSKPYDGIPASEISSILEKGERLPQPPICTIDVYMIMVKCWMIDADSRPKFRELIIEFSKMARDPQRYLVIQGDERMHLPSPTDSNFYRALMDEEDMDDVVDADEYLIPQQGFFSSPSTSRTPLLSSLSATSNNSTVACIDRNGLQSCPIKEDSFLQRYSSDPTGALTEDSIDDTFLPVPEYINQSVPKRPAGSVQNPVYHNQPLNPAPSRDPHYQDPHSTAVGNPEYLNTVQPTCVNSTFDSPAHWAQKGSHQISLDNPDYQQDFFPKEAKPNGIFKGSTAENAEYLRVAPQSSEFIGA
Description: EGFR kinase assay (TR-FRET). In kind it is biochemical. The following applies: 10 μM ATP; read-out: EGFR kinase inhibition IC50. From the text:
EGFR inhibitory activity of compounds of the present invention was quantified employing the TR-FRET based EGFR assay as described in the following paragraphs.
Epidermal Growth Factor Receptor (EGFR) affinity purified from human carcinoma A431 cells (Sigma-Aldrich, # E3641) was used as kinase. As substrate for the kinase reaction the biotinylated peptide biotin-Ahx-[…] (SEQ ID NO: 8, C-terminus in amid form) was used which can be purchased e.g. form the company Biosyntan GmbH (Berlin-Buch, Germany).
For the assay 50 nL of a 100 fold concentrated solution of the test compound in DMSO was pipetted into a black low volume 384 well microtiter plate (Greiner Bio-One, Frickenhausen, Germany), 2 μL of a solution of EGFR in aqueous assay buffer [50 mM Hepes/HCl pH 7.0, 1 mM MgCl2, 5 mM MnCl2, 0.5 mM activated sodium ortho-vanadate, 0.005% (v/v) Tween-20]were added and the mixture was incubated for […] at 22° C. to allow pre-binding of the test compounds to the enzyme before the start of the kinase reaction. Then the kinase reaction was started by the addition of 3 μL of a solution of adenosine-tri-phosphate (ATP, 16.7 μM=>final conc. in the 5 μL assay volume is 10 μM) and substrate (1.67 μM =>final conc. in the 5 μL assay volume is 1μM) in assay buffer and the resulting mixture was incubated for a reaction time of […] at 22° C. The concentration of EGFR was adjusted depending of the activity of the enzyme lot and was chosen appropriate to have the assay in the linear range, typical concentration were about 3 U/ml. The reaction was stopped by the addition of 5 μl of a solution of HTRF detection reagents (0.1 μM streptavidine-XL665 [Cis Biointernational]and 1 nM PT66-Tb-Cryptate, an terbium-cryptate labelled anti-phospho-tyrosine antibody from Cis Biointernational [instead of the PT66-Tb-cryptate PT66-Eu-Chelate from Perkin Elmer can also be used]) in an aqueous EDTA-solution (80 mM EDTA, 0.2% (w/v) bovine serum albumin in 50 mM HEPES pH 7.5).
The resulting mixture was incubated 1 h at 22° C. to allow the binding of the biotinylated phosphorylated peptide to the streptavidine-XL665 and the PT66-Eu-Chelate. Subsequently the amount of phosphorylated substrate was evaluated by measurement of the resonance energy transfer from the PT66-Tb-Cryptate to the streptavidine-XL665. Therefore, the fluorescence emissions at 620 nm and 665 nm after excitation at 337 nm were measured in a HTRF reader, e.g. a Pherastar (BMG Labtechnologies, Offenburg, Germany) or a Viewlux (Perkin-Elmer). The ratio of the emissions at 665 nm and at […] was taken as the measure for the amount of phosphorylated substrate.
Regarding `Cc1nc(N[C@H](C)c2cccc(Br)c2)c2cc(F)ncc2n1` [Example 34, N-[(1R)-1-(3-bromophenyl)ethyl]-6-fluoro-2-methylpyrido[3,4-d]pyrimidin-4-amine], the pIC50 was under 4.70.
For `Cc1nc(NC(C)c2ccc(Br)s2)c2cc(F)ncc2n1` (centres unmarked) [Example 35], the negative logarithm of the IC50 (pIC50) was under 4.70.
As for `CNCc1ccccc1-c1ccc(C(C)Nc2nc(C)nc3cnc(F)cc23)s1` (centres unmarked) [Example 36, 6-fluoro-2-methyl-N-[1-(5-{2-[(methylamino)methyl]phenyl}thiophen-2-yl)ethyl]pyrido[3,4-d]pyrimidin-4-amine], the pIC50 is under 4.70.
On to `CNCc1ccccc1-c1ccc(C(C)Nc2nc(C)nc3cnc(Oc4ccc(N5CCCC5=O)cc4)cc23)s1` (centres unmarked) [Example 38, 1-{4-[(2-methyl-4-{[1-(5-{2-[(methylamino)methyl]phenyl}thiophen-2-yl)ethyl]amino}pyrido[3,4-d]pyrimidin-6-yl)oxy]phenyl}pyrrolidin-2-one], for which the pIC50 was under 4.70.
On to `Cc1nc(N[C@H](C)c2cccc(Br)c2)c2cc(NCCN3CCOCC3)ncc2n1` [Example 39], for which the pIC50 was under 4.70.
On to `Cc1nc(N[C@H](C)c2cccc(Br)c2)c2cc(Oc3cccc(O)c3)ncc2n1` [Example 40, 3-[(4-{[(1R)-1-(3-bromophenyl)ethyl]amino}-2-methylpyrido[3,4-d]pyrimidin-6-yl)oxy]phenol], for which the pIC50 was under 4.70.
For the compound `Cc1nc(N[C@H](C)c2cccc(Br)c2)c2cc(Oc3cccc(C4=NCCN4C)c3)ncc2n1` [Example 41, N-[(1R)-1-(3-bromophenyl)ethyl]-2-methyl-6-[3-(1-methyl-4,5-dihydro-1H-imidazol-2-yl)phenoxy]pyrido[3,4-d]pyrimidin-4-amine], the pIC50 is under 4.70.
With `Cc1nc(N[C@H](C)c2cccc(Br)c2)c2cc(N3CCN(Cc4cccnc4)CC3)ncc2n1` [Example 43, N-[(1R)-1-(3-bromophenyl)ethyl]-2-methyl-6-[4-(pyridin-3-ylmethyl)piperazin-1-yl]pyrido[3,4-d]pyrimidin-4-amine], the pIC50 was under 4.70.
`CC(=O)NCCNc1cc2c(N[C@H](C)c3cccc(Br)c3)nc(C)nc2cn1` [Example 44, N-{2-[(4-{[(1R)-1-(3-bromophenyl)ethyl]amino}-2-methylpyrido[3,4-d]pyrimidin-6-yl)amino]ethyl}acetamide]: the negative logarithm of the IC50 (pIC50) was under 4.70.
Regarding `Cc1nc(N[C@H](C)c2cccc(Br)c2)c2cc(N3CCNC(=O)C3)ncc2n1` [Example 45], the pIC50 was under 4.70.
In the case of `Cc1nc(N[C@H](C)c2cccc(Br)c2)c2cc(NC3CCOCC3)ncc2n1` [Example 46] it was under 4.70.
Consider `Cc1nc(NC(C)c2ccc(-c3ccccc3CN(C)C)s2)c2cc(NCCN3CCOCC3)ncc2n1` (centres unmarked) [Example 48], for which the pIC50 is under 4.70.
Regarding `Cc1nc(N[C@H](C)c2cccc(Br)c2)c2cc(NCCn3cccn3)ncc2n1` [Example 49, N4-[(1R)-1-(3-bromophenl)pethyl]-2-methyl-N6-[2-(1H-pyrazol-1-yl)ethyl]pyrido[3,4-d]pyrimidine-4,6-diamine], the pIC50 is under 4.70.
Turning to `CC(=O)NCCNc1cc2c(NC(C)c3ccc(-c4ccccc4CN(C)C)s3)nc(C)nc2cn1` (centres unmarked) [Example 51, N-{2-[(4-{[1-(5-{2-[(dimethylamino)methyl]phenyl}thiophen-2-yl)ethyl]amino}-2-methylpyrido[3,4-d]pyrimidin-6-yl)amino]ethyl}acetamide], the pIC50 is under 4.70.
In the case of `Cc1nc(NC(C)c2ccc(-c3ccccc3CN(C)C)s2)c2cc(Oc3cccc(O)c3)ncc2n1` (centres unmarked) [Example 52, 3-[(4-{[1-(5-{2-[(dimethylamino)methyl]phenyl}thiophen-2-yl)ethyl]amino}-2-methylpyrido[3,4-d]pyrimidin-6-yl)oxy]phenol], the pIC50 was under 4.70.
In the case of `Cc1nc(NC(C)c2ccc(-c3ccccc3CN(C)C)s2)c2cc(NC3CCOCC3)ncc2n1` (centres unmarked) [Example 53, N4-[1-(5-{2-[(dimethylamino)methyl]phenyl}-2-thienyl)ethyl]-2-methyl-N6-(tetrahydro-2H-pyran-4-yl)pyrido[3,4-d]pyrimidine-4,6-diamine] it was under 4.70; in that of `Cc1nc(NC(C)c2ccc(-c3ccccc3CN(C)C)s2)c2cc(NCCn3cccn3)ncc2n1` (centres unmarked) [Example 54, N4-[1-(5-{2-[(dimethylamino)methyl]phenyl}-2-thienyl)ethyl]-2-methyl-N6-[2-(1H-pyrazol-1-yl)ethyl]pyrido[3,4-d]pyrimidine-4,6-diamine], under 4.70.
Consider `Cc1nc(NC(C)c2ccc(-c3ccccc3CN(C)C)s2)c2cc(NCCn3ccnc3)ncc2n1` (centres unmarked) [Example 56, N4-[1-(5-{2-[(dimethylamino)methyl]phenyl}-2-thienyl)ethyl]-N6-[2-(1H-imidazol-1-yl)ethyl]-2-methylpyrido[3,4-d]pyrimidine-4,6-diamine], for which the pIC50 is under 4.70.
For `COc1cc2c(N[C@H](C)c3cccc(Br)c3)nc(C)nc2cn1` [Example 57, N-[(1R)-1-(3-bromophenyl)ethyl]-6-methoxy-2-methylpyrido[3,4-d]pyrimidin-4-amine], the pIC50 is under 4.70.
Regarding `Cc1nc(NC(C)c2ccc(-c3ccccc3CN(C)C)s2)c2cc(Oc3cccc(C4=NCCN4C)c3)ncc2n1` (centres unmarked) [Example 58, N-[1-(5-{2-[(dimethylamino)methyl]phenyl}thiophen-2-yl)ethyl]-2-methyl-6-[3-(1-methyl-4,5-dihydro-1H-imidazol-2-yl)phenoxy]pyrido[3,4-d]pyrimidin-4-amine], the pIC50 is under 4.70.
For `CSc1cc2c(NC(C)c3ccc(-c4ccccc4CN(C)C)s3)nc(C)nc2cn1` (centres unmarked) [Example 59, N-[1-(5-{2-[(dimethylamino)methyl]phenyl}thiophen-2-yl)ethyl]-2-methyl-6-(methylsulfanyl)pyrido[3,4-d]pyrimidin-4-amine], the pIC50 was under 4.70.
In the case of `CC(=O)NCCOc1cc2c(N[C@H](C)c3cccc(Br)c3)nc(C)nc2cn1` [Example 62, N-{2-[(4-{[(1R)-1-(3-bromophenyl)ethyl]amino}-2-methylpyrido[3,4-d]pyrimidin-6-yl)oxy]ethyl}acetamide], the pIC50 is under 4.70.
For the compound `CCOc1cc2c(NC(C)c3ccc(-c4ccccc4CN(C)C)s3)nc(C)nc2cn1` (centres unmarked) [Example 63, N-[1-(5-{2-[(dimethylamino)methyl]phenyl}thiophen-2-yl)ethyl]-6-ethoxy-2-methylpyrido[3,4-d]pyrimidin-4-amine], the pIC50 was under 4.70.
For the compound `COc1cc2c(NC(C)c3ccc(-c4ccccc4CN(C)C)s3)nc(C)nc2cn1` (centres unmarked) [Example 64, N-[1-(5-{2-[(dimethylamino)methyl]phenyl}thiophen-2-yl)ethyl]-6-methoxy-2-methylpyrido[3,4-d]pyrimidin-4-amine], the pIC50 is under 4.70.
In the case of `Cc1nc(NC(C)c2ccc(-c3ccccc3CN(C)C)s2)c2cc(OC3CCS(=O)(=O)CC3)ncc2n1` (centres unmarked) [Example 67, N-[1-(5-{2-[(dimethylamino)methyl]phenyl}thiophen-2-yl)ethyl]-6-[(1,1-dioxidotetrahydro-2H-thiopyran-4-yl)oxy]-2-methylpyrido[3,4-d]pyrimidin-4-amine] it was under 4.70.
As to `Cc1nc(NC(C)c2ccc(-c3ccccc3CO)s2)c2cc(F)ncc2n1` (centres unmarked) [Example 68, [2-(5-{1-[(6-fluoro-2-methylpyrido[3,4-d]pyrimidin-4-yl)amino]ethyl}thiophen-2-yl)phenyl]methanol], the pIC50 was under 4.70.
Consider `Cc1nc(N[C@H](C)c2cccc(Br)c2)c2cc(OCCCN(C)C)ncc2n1` [Example 70, N-[(1R)-1-(3-bromophenyl)ethyl]-6-[3-(dimethylamino)propoxy]-2-methylpyrido[3,4-d]pyrimidin-4-amine], for which the pIC50 is under 4.70.
The result for `Cc1nc(NC(C)c2ccc(-c3ccccc3CN(C)C)s2)c2cc(N3CCC3)ncc2n1` (centres unmarked) [Example 71, 6-(azetidin-1-yl)-N-[1-(5-{2-[(dimethylamino)methyl]phenyl}thiophen-2-yl)ethyl]-2-methylpyrido[3,4-d]pyrimidin-4-amine] reads under 4.70; that for `Cc1nc(NC(C)c2ccc(-c3ccccc3CN(C)C)s2)c2cc(OCCCN(C)C)ncc2n1` (centres unmarked) [Example 72, N-[1-(5-{2-[(dimethylamino)methyl]phenyl}thiophen-2-yl)ethyl]-6-[3-(dimethylamino)propoxy]-2-methylpyrido[3,4-d]pyrimidin-4-amine], under 4.70.
